Paper PMC11609934, “Exploration and characterization of the antimalarial activity of cyclopropyl carboxamides that target the mitochondrial protein, cytochrome b” (European Journal of Medicinal Chemistry, 2024)
pEC50: −log10 of the molar value. Converted amounts (≈) assume the structure as drawn.

Key:
[1] = system: P. falciparum 3D7 parasites; assay: P. falciparum 3D7 asexual stage LDH assay (72 h); type: cell-based, Plasmodium falciparum; details: Plasmodium falciparum, 3D7, 72 h, LDH activity of P. falciparum 3D7 parasites over 72 h; means and SDs, three or more experiments; read-out: Pf 3D7 EC50 (SD)
Procedure, shortened: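 Asexual P. falciparum 3D7 parasites were grown for 72 h over a 10-point, 3-fold series starting at 1 μM in 0.1% DMSO, with 100 nM chloroquine as negative growth control. After freeze-thaw, parasite LDH was read at 650 nm, and EC50 came from a variable-slope sigmoidal fit.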

[2] = Human HepG2 growth inhibition assay (Cell TitreGlo, 48 h); type: cell-based; details: human, HepG2 cells, HepG2 cell growth inhibition over 48 h
Procedure, shortened: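 HepG2 cells (1000/well, DMEM + 10% FCS) exposed 48 h at 37 °C, 5% CO2 to compound from 50 μM top concentration in 1:2 dilutions, 0.5% DMSO final. Viability read by Cell Titer Glo, normalised to DMSO and 10 μM bortezomib; EC50 by four-parameter variable-slope fit.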

male gamete = assay: Dual gamete formation assay, male gametes; type: cell-based; details: Plasmodium falciparum; NF54 parasites in a DGFA, 4 replicates
Description: (§1) To determine whether the cyclopropyl carboxamide class has transmission blocking potential we profiled selected analogs in a dual gamete formation assay. In this assay, stage V gametocytes are treated with compound, and gametogenesis is induced by the addition of xanthurenic acid. Male gamete viability is determined by an imaging algorithm measuring motile flagellation, while female viability is measured using an antibody to the female-specific Pfs25 surface marker. […] Collectively, the activity observed against male gametes is consistent with activity observed with other cyt b inhibitors.
(§2) Dual Gamete Formation Assay. Compounds were evaluated as previously described as a platform run at both Imperial College London and the London School of Hygiene and Tropical Medicine. Briefly, mature stage V gametocytes were exposed to compounds for 48 h at 37 °C in 384 well plates in gametocyte culture medium (RPMI 1640 supplemented with 25 mM HEPES, 50 μg/mL hypoxanthine, 4.8 g/L NaHCO3, 2 mM L-glutamine, 5 % pooled type AB serum, 0.5 % Albumax II (Gibco)) under a 1 % O2/3 % CO2/96 % N2 environment. Gametogenesis was then triggered by the addition of 10 μL ookinete medium (gametocyte culture medium supplemented with 100 μM xanthurenic acid and 0.27 μg/mL Cy3-labelled anti-Pfs25 antibody) to each well at room temperature. Plates were then cooled on a metal block at 4 °C for 4 min to ensure even cooling and then stabilized for a further 4 min at 28 °C. At 20 min post-induction, male gametogenesis was recorded in each well by automated brightfield microscopy using a × 4 objective lens and 1.5 × magnifier ( × 6 effective magnification). Afterward, plates were incubated in the dark at room temperature for 24 h and then female gametogenesis recorded in each well by automated fluorescence microscopy (anti-Pfs25-positive cells). […] All data was evaluated in comparison to the positive and negative controls to calculate percentage inhibition of male and female gametocytes, and dose response analysis and EC50 calculation performed using GraphPad Prism.

female gamete = assay: Dual gamete formation assay, female gametes; type: cell-based; details: Plasmodium falciparum; NF54 parasites in a DGFA, 4 replicates
Description: as §1, §2

[3] = system: P. berghei ANKA parasites; assay: P. berghei 4-day mouse model; type: in vivo, Plasmodium berghei; details: for % parasitemia / % reduction in parasitemia: mice, day 4, oral gavage q.d. x4, 50 mg/kg (ART 30 mg/kg); for % reduction in parasitemia: versus vehicle control
Description: The 4-day P. berghei mouse model is used to determine the preliminary in vivo efficacy of antimalarials at an early stage of optimization. To determine if cyclopropyl carboxamide series could reduce asexual blood stage infection, we evaluated representative compounds WJM280 (108) and analog 109 in the 4-day P. berghei mouse model. In this model, mice were infected P. berghei asexual stage parasites, and then 2 h after the infection, WJM280 (108) and analog 109 at 50 mg/kg and artesunate at 30 mg/kg were administered by oral gavage. The same compound doses were administered again, 24, 48, and 72 h post infection. Parasitemia was then quantified by preparing blood smears and visualizing by microscopy across days 2, 3, and 4. […] The inability of these compounds to reduce parasitemia was attributed to their high metabolic turnover, which is a characteristic that needs improving on further development of the cyclopropyl carboxamide class.
P. berghei 4-day Mouse Model. This model was conducted as previously described.

[4] = Aqueous solubility (kinetic in PBS, pH 7.4); type: physicochemical; details: phosphate buffered saline
Description: Solubility. The solubility assay was performed using a miniaturized shake flask method. A solution of phosphate buffered saline (PBS) and the test compound (200 μM) was incubated at 25 °C with constant shaking (600 rpm) for 2 h. The samples were filtered using a multiscreen solubility filter plate. The filtrate was half diluted in acetonitrile. A five-point linearity curve was prepared in PBS:acetonitrile (1:1, v/v) at 200, 150, 75, 25 and 2.5 μM. Blank, linearity and test samples (n = 2) were transferred to a UV readable plate and the plate was scanned for absorbance. Best fit calibration curves were constructed using the calibration standards and used to determine the test sample solubility. The experiment was carried out in duplicate. Diethylstilbestrol, haloperidol, and diclofenac sodium were used as reference standards.

[5] = Human liver microsome stability; type: in vitro ADME; details: pooled human liver microsomes
Description: Human Liver Microsome Stability. A solution of the test compounds in phosphate buffer solution (1 μM) was incubated in pooled human liver microsomes (0.5 mg/mL) for 0, 5, 20, 30, 45 and 60 min at 37 °C in the presence and absence of NADPH regeneration system. The reaction was terminated with the addition of ice-cold acetonitrile containing system suitability standard at designated time points. […] The experiment was carried out in duplicate. Verapamil, diltiazem, phenacetin, and imipramine were used as reference standards.

Rat hepatocyte stability = type: in vitro ADME; details: pooled rat hepatocytes
Description: Rat Hepatocyte Stability. A solution of the test compound in Krebs-Henseliet buffer solution (1 μM) was incubated in pooled rat hepatocytes (1 × 10^6 cells/mL) for 0, 15,30,45, 60, 75 and 90 min at 37 °C (5 % CO2, 95 % relative humidity). The reaction was terminated with the addition of ice-cold acetonitrile containing system suitability standard at designated time points. […] The experiment was carried out in duplicate. Diltiazem, 7-ethoxy coumarin, propranolol, and midazolam were used as reference standards.

[6] = eLogD (shake-flask, pH 7.4); type: physicochemical; details: 1-octanol/phosphate buffered saline (1:1, v/v), Shake-flask method
Description: eLogD. The LogD (pH 7.4) assay was performed using a miniaturized shake flask method. A solution of a pre-saturated mixture of 1-octanol and phosphate buffered saline (PBS) (1:1, v/v) and the test compound (75 μM) was incubated at 25 °C with constant shaking (850 rpm) for 2 h. After incubation the organic and aqueous phases were separated, and samples of each phase transferred to plate for dilution. The organic phase was diluted to 1000-fold and the aqueous phase was diluted 20-fold. The samples were quantitated using LC-MS/MS. The experiment was carried out in duplicate. Propranolol, amitriptyline, and midazolam were used as reference standards.

Structure (SMILES) | pEC50 [1] | CC50 at 48 h [2] | pEC50 (male gamete) | pEC50 (female gamete) | % parasitemia [3] | % reduction in parasitemia [3] | solubility at 2 h [4] | microsomal CLint at 1 h, 1 µM [5] | hepatocyte CLint at 1.5 h, 1 µM (Rat hepatocyte stability) | logD at 2 h [6] | body weights of mice ([3]; 50 mg/kg q.d. oral, 4 days) | hepatocyte CLint at 1 μM (Rat hepatocyte stability)
CCCN(Cc1ccc(C(=O)NC2CC2)cc1)Cc1c(C)cc(C)cc1C [Compound 110, N-Cyclopropyl-4-((propyl(2,4,6-trimethylbenzyl)amino)methyl)benzamide] | 7.10 | > 40000 nM | 6.55 | < 4.60 | – | – | – | – | – | – | – | –
C[C@H]1[C@H](OC(=O)CCC(=O)O)O[C@@H]2O[C@@]3(C)CC[C@H]4[C@H](C)CC[C@@H]1[C@@]24OO3 [ART, artesunate, reference compound] | – | – | – | – | 2.3% | 97.7% | – | – | – | – | – | –
CCCN(Cc1ccc(C(=O)NC2CC2)cc1)Cc1ccc(C(C)(C)C)cc1 [Compound 107, 4-(((4-(tert-Butyl)benzyl) (propyl)amino)methyl)-N-cyclopropylbenzamide] | 7.70 | > 40000 nM | 7.10 | 4.67 | – | – | 10 µM (≈ 3.79 µg/mL) | 263 µL/min/mg | 92 µL/min/1e6 cells | 4.9 | – | –
CCCN(Cc1ccc(C(=O)NC2CC2)cc1)Cc1cc(C(F)(F)F)cc(C(F)(F)F)c1 [Compound 109, 4-(((3,5-Bis(trifluoromethyl)benzyl) (propyl)amino)methyl)-N-cyclopropylbenzamide] | 7.52 | 10000 nM | – | – | 91% | 9% | 2.5 µM (≈ 1.15 µg/mL) | 65 µL/min/mg | 60 µL/min/1e6 cells | 5 | slightly reduced | –
O=C(NC1CC1)c1ccc(CN(Cc2ccccc2)CC(F)(F)F)cc1 [Compound 25, 4-((Benzyl(2,2,2-trifluoroethyl)amino)methyl)-N-cyclopropylbenzamide] | 6.59 | > 40000 nM | – | – | – | – | 11 µM (≈ 3.99 µg/mL) | 79 µL/min/mg | – | 4.8 | – | > 92 µL/min/1e6 cells
